Measured values as given in paper PMC11653257, “Organometallic Half-Sandwich Complexes of 8-Hydroxyquinoline-Derived Mannich Bases with Enhanced Solubility: Targeting Multidrug Resistant Cancer” (Inorganic Chemistry, 2024).

How the values were obtained:
[1] = system: Staphylococcus aureus (ATCC 25923); assay: Antibacterial MIC, S. aureus; type: cell-based; conditions: Mueller Hinton Broth, 37 °C, 18 h
Description: (§1) Escherichia coli (ATCC 25922) was used as Gram-negative strain and Staphylococcus aureus (ATCC 25923, methicillin-resistant (MRSA) ATCC 43300) strains were applied as Gram-positive bacterial cultures in the experiments. MIC values of the compounds were determined in 96-well plates based on the Clinical and Laboratory Standard Institute guidelines (CLSI guidelines).[76] The stock solutions of the compounds (same as those used for cytotoxicity experiments) were diluted in 100 μL of Mueller Hinton Broth. Then, 10^–4 dilution of an overnight bacterial culture in 100 μL of medium was added to each well, with the exception of the medium control wells.

[2] = H2O/Cl– coligand exchange by UV–vis titration with chloride ions; type: physicochemical
Description: When the isolated complexes (1–4) are dissolved in water, their chlorido coligand can be replaced by water, or vice versa in the aqua complexes [M(arene)(HL)(H2O)]^2+, the H2O → Cl^– exchange process can take place in the presence of chloride ions. The chloride ion affinity of the complexes was also investigated by UV–vis spectrophotometry. RhCp* and RuCym complexes were titrated with chloride ions at pH 7.4 and 6.0, respectively. For this experiment, pH values were chosen at which the formation of the mixed hydroxido species is negligible. A representative spectrum series for complex (4) is shown in Figure S27, and the calculated conditional exchange constants (logK’ (H2O/Cl^–)) are given in Table 2 and in Figure S23. […] The complexes of the amino acid hybrids HQCl-D-Pro and HQCl-D-hPro have lower logK’ (H2O/Cl^–) constants most likely due to the repulsive effect of the nearby COO^– group.[26]

MES-SA [3] = assay: Cytotoxicity in double coculture, MES-SA mCherry; conditions: read-out: IC50 MES-SA; double coculture with MES-SA/Dx5; 144 h; without TQ
Description: (§4) Therefore, the novel half-sandwich complexes (1–4) and their corresponding ligands were tested against a coculture of MES-SA and MES-SA/Dx5 cells expressing the fluorescent proteins mCherry or eGFP, respectively.[62]
(§5) The tested compounds were dissolved in 50% (v/v) DMSO/PBS’ buffer to prepare 5–10 mM stock solutions, which were diluted in complete culture medium. Constitutive expression of the fluorescent proteins allowed multiplexing in cytotoxicity experiments.[62] […] Serial dilutions of the compounds were added 24 h after seeding. To address the effect of P-gp function, TQ was added at a nontoxic concentration (0.4 μM) 15 min before the test compounds. […] IC50 values and standard deviation were calculated from average pIC50 values from at least 3 independent measurements.

[4] = pKa of in situ prepared complexes by UV–vis titration; type: physicochemical; conditions: 1:1 system, absence of chloride, I = 0.20 M KNO3
Text: The UV–vis spectra of the complexes prepared in situ were then followed at different pH values in the absence of chloride ions. No spectral changes were observed between pH = 2–6.3 (RuCym) or 7.5 (RhCp*), indicating high solution stability in both cases; however, the changes were significant in the basic pH range (Figure S22). In the case of RuCym complexes, two overlapping processes associated with the deprotonation of the coordinated water molecule and the noncoordinated Npyr/pipH^+ moiety were observed. […] The pKa values determined for these processes are shown in Table 2 and Figure S23 together with the values obtained for complexes formed with the amino acid hybrids HQCl-D-Pro and HQCl-D-hPro (Chart 2) for comparison.[26]
An Agilent Cary 8454 diode array spectrophotometer was utilized to obtain UV–vis spectra in the wavelength range 190–1100 nm. The path length (l) was 1 or 2 cm in most cases (the actual l is always indicated in the legends of the figures). The concentrations of the ligands and complexes were between 36 and 100 μM. The ligands were titrated in the presence of 10 equiv of EDTA. Individual samples contained 0–37 μM HSA, 0–206 μM MIM, 0–759 μM AHA, or 0–733 μM FHA. Spectra were always background and baseline corrected. The computer program HypSpec[64] was used to obtain stability constants.

[5] = pKa of in situ prepared complexes by pH-potentiometry; type: physicochemical; conditions: I = 0.20 M KNO3
Text: The results, shown in Table 2, indicate good agreement between the data obtained by the different methods. It should be noted that these processes show overlap in all cases, and therefore, the assignment of the pKa values to the given moieties cannot be made reliably. However, by comparing the spectral changes with those observed for HQ and other simple derivatives,[25] it can be concluded that the lower pKa likely belongs to the deprotonation of the aqua coligand.
The pH-potentiometric measurements were carried out at 25.0 ± 0.1 °C in water in the pH range between 2.0 and 11.5 and at a constant ionic strength of 0.20 M KNO3. The titrations were performed in a carbonate-free KOH solution (0.20 M). The exact concentrations of the HNO3 and KOH solutions were determined by pH-potentiometric titrations. An Orion 710A pH-meter equipped with a Metrohm combined electrode (type 6.0234.100) and a Metrohm 665 Dosimat buret were used for this purpose. […] The average water ionization constant, pKw, was determined as 13.76 ± 0.01, which is in good agreement with the literature data.[67] The initial volume of the samples was 10.0 mL. […] Samples were degassed by bubbling purified argon through them for about 10 min prior to the measurements, and the inert gas was also passed over the solutions during the titrations. The computer program Hyperquad2013[64] was utilized to establish the stoichiometry of the species and to calculate the equilibrium constants.

[6] = target: human serum albumin (HSA), Trp214 / site I (Homo sapiens, UniProt P02768); assay: HSA Trp214 fluorescence quenching; conditions: 1 μM HSA; λEX = 295 nm (Trp-214); pH 7.4 (PBS’); […]; 24 h
Sequence of human serum albumin (HSA), Trp214 / site I (P02768 25-609): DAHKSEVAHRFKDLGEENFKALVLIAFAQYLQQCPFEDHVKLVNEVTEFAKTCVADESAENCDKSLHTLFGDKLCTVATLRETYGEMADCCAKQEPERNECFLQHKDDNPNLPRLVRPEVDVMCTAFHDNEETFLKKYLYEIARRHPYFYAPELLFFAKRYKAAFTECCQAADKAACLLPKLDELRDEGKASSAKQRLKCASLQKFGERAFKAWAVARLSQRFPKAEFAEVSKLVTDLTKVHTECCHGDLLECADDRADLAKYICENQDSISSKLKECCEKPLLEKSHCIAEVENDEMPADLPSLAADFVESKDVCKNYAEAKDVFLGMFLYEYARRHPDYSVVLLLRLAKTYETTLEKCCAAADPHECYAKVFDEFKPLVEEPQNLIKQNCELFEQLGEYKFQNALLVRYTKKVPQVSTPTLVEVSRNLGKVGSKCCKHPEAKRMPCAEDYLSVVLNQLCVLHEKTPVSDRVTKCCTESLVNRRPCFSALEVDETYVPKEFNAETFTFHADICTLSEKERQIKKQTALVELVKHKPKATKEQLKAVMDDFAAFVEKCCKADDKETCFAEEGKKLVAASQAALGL
Description: (§6) Next, spectrofluorometric measurements were also performed to gain insight into the binding interactions that may occur in the hydrophobic binding sites of HSA. Tryptophan (Trp214) quenching experiments were conducted for the complexes (1–4) (for complex (3) see Figure S31) and their ligands). […] To monitor the binding at site II, site marker displacement experiments were performed using dansylglycine (DG).
(§7) Fluorescence measurements were carried out on a Fluoromax (Horiba Jobin Yvon, Longjumeau, France) spectrofluorometer using a 1 cm × 1 cm quartz cuvette. […] Excitation wavelengths were 295 nm for Trp-214 quenching and 340 nm for the DG displacement studies. The calculated conditional stability constants for HSA–complex species were obtained using the computer program HypSpec.[64] Calculations always were based on data obtained from at least two independent measurements.

[7] = system: Escherichia coli (ATCC 25922); assay: Antibacterial MIC, E. coli; type: cell-based; conditions: Mueller Hinton Broth, 37 °C, 18 h
Description: as §1

MES-SA/Dx5 [8] = assay: Cytotoxicity in double coculture, MES-SA/Dx5 eGFP; conditions: for SR = IC50 (MES-SA)/IC50 (MES-SA/Dx5): double coculture; for IC50: read-out: IC50 MES-SA/Dx5, double coculture with MES-SA, 144 h
Description: as §4, §5

[9] = target: human serum albumin (HSA), site II (Homo sapiens, UniProt P02768); assay: HSA dansylglycine (DG) site marker displacement; conditions: cHSA = cDG = 1 μM; λEX = 335 nm (DG); pH 7.4 (PBS’); […]; 24 h
Sequence of human serum albumin (HSA), site II (P02768 25-609): as above
Description: as §6, §7

[10] = n-octanol/water distribution coefficient (shake-flask); type: physicochemical; conditions: pH 7.4, […]
Description: The exchange of the coligand (H2O/Cl^–) changes the overall charge of the complex, thus affecting lipophilicity. […] The traditional shake-flask method was used to obtain distribution coefficients of the ligands as well as of the complexes in n-octanol/buffered aqueous solution (20 mM phosphate, pH = 7.4) at different chloride ion concentrations (4, 24, and 100 mM) using UV–vis spectrophotometry (Agilent Cary 8454 diode array spectrophotometer, Santa Clara, CA, USA) for the analysis. The compounds were dissolved in buffered aqueous solutions previously saturated with n-octanol. Then the aqueous and n-octanol phases were gently mixed in different volume ratios (using 1:60 for the ligands, 1:1 for the RhCp* and 1:2 for the RuCym complexes ratios of n-octanol to buffered aqueous solution volume) for 4 h, followed by phase separation. Then the UV–vis spectrum of the aqueous or n-octanol phase was recorded and compared to the reference spectrum. Stock solutions were made in the aqueous phase, and distribution coefficients (DpH) were calculated by the following equation: [drawing 3]

[11] = system: methicillin-resistant S. aureus (MRSA) ATCC 43300; assay: Antibacterial MIC, MRSA; type: cell-based, Staphylococcus aureus; conditions: Mueller Hinton Broth, 37 °C, 18 h
Description: as §1

MES-SA/Dx5 [12] = assay: Cytotoxicity in triple coculture, MES-SA/Dx5 eGFP; type: cell-based, human
Description: (§2) Cell lines were purchased from the American Type Culture Collection (ATCC). MES-SA/B1 is a human MDR1-transfected derivative of MES-SA, and MES-SA mCherry, MES-SA/B1 mOrange, and MES-SA/Dx5 eGFP were engineered to stably express the respective fluorescent proteins previously.[62] Cells were kept in culture medium (DMEM) supplemented with 10% fetal bovine serum, 2 mM L-glutamine, 100 units/mL penicillin, and 100 μg/mL streptomycin (Thermo Fisher). One week before use, MES-SA/Dx5 eGFP cells were treated with 0.5 μM doxorubicin to ensure ABCB1/P-gp expression.
(§3) The tested compounds were dissolved in 50% (v/v) DMSO/PBS’ buffer to prepare 5–10 mM stock solutions, which were diluted in complete culture medium. Constitutive expression of the fluorescent proteins allowed multiplexing in cytotoxicity experiments.[62] Cells were mixed before seeding in 384-well plates: in double cocultures, MES-SA mCherry and MES-SA/Dx5 eGFP cells were seeded at 1250–1250 cells/well (in total 2500 cells/well); while in triple cocultures, MES-SA mCherry, MES-SA/Dx5 eGFP and MES-SA/B1 mOrange cells were seeded at 800–800–800 cells/well (in total 2400 cells/well). Serial dilutions of the compounds were added 24 h after seeding. To address the effect of P-gp function, TQ was added at a nontoxic concentration (0.4 μM) 15 min before the test compounds. The intensity of the fluorescent proteins, which is proportional to cell mass, was measured after 144 h of incubation at the respective fluorescent channels (excitation/emission: eGFP: 485 nm/510 nm; mOrange: 545 nm/567 nm; mCherry: 585 nm/610 nm). pIC50 values were calculated by a custom program written by Judit Sessler in C#.[62] IC50 values and standard deviation were calculated from average pIC50 values from at least 3 independent measurements.

MES-SA [13] = assay: Cytotoxicity in triple coculture, MES-SA mCherry; type: cell-based, human; conditions: Homo sapiens, MES-SA/B1, MES-SA/Dx5, 144 h
Description: as §2, §3

MES-SA/B1 = assay: Cytotoxicity in triple coculture, MES-SA/B1 mOrange; type: cell-based, human
Description: as §2, §3

[14] = Ligand displacement with 2,2′-bipyridine, conditional formation constant; type: physicochemical; conditions: pH 7.4; bpy competitor; UV–vis
Text: These pKa (H2O) values are lower than those of the complexes formed with the corresponding amino acid hybrids (HQCl-D-Pro, HQCl-D-hPro, Figure S23). Thus, the predominant complex at pH 7.4 is [M(arene)(HL)(H2O)]^2+ in all cases, in which the bidentate ligand coordinates via the (N,O^–) donor set and the pyridinium or pyrrolidinium nitrogens are protonated just like in the isolated complexes (Chart 3). Based on the unchanged spectra (vide supra), these types of complexes show no dissociation at pH = 2, indicating their high stability and hindering the direct determination of the formation constants. Therefore, a ligand displacement experiment was performed using UV–vis spectrophotometry with 2,2′-bipyridine (bpy) as a competitor to determine conditional formation constants at pH = 7.4 (Figure S25). […] Nevertheless, these values indicate a high stability of the complexes in solution, and <1% of dissociation is estimated at 1 μM concentration at pH = 7.4. The ligand displacement measurement could not be applied to the RuCym complexes due to the release of the p-cymene ring followed by the formation of the mixed ligand complex with bpy and oxidation of the metal center (Figure S26), similarly to analogue complexes.[14],[26],[27]

| Molecule | MIC [1] | IC50 (MES-SA [3]) | pKa (H2O) [5] | pKa (Npyr/pipH+) [5] | logK’(quenching) [6] | MIC [7] | SR = IC50 (MES-SA)/IC50 (MES-SA/Dx5) (MES-SA/Dx5 [8]; + 0.4 μM tariquidar (TQ)) | SR = IC50 (MES-SA)/IC50 (MES-SA/Dx5) (MES-SA/Dx5 [8]; without TQ) | IC50 (MES-SA/Dx5 [8]; without TQ) | logK’(DG) [9] | logD7.4 ([10]; c(Cl–) = 4 mM) | logD7.4 ([10]; c(Cl–) = 24 mM) | logD7.4 ([10]; c(Cl–) = 100 mM) | MIC [11] | other results |
| --- | --- | --- | --- | --- | --- | --- | --- | --- | --- | --- | --- | --- | --- | --- | --- |
| [RuCym(HQCl-Pyr)Cl]Cl [(2)] | > 100 µM | 8.97 µM | 8.47 ± 0.04 | 10.40 ± 0.03 | 5.3 ± 0.2 | > 100 µM | 0.1 | 3.2 | 2.78 µM | 5.2 ± 0.1 | –0.12 ± 0.02 | +0.23 ± 0.03 | +0.46 ± 0.02 | > 100 µM | logK’ (H2O/Cl–) ([2]; RuCym complexes titrated at pH 6.0): 1.60 ± 0.07; pKa (H2O) [4]: 8.42 ± 0.03; pKa (Npyr/pipH+) [4]: 10.32 ± 0.03 |
| COc1cc([C@@H]2c3cc4c(cc3[C@@H](O[C@@H]3O[C@@H]5CO[C@@H](C)O[C@H]5[C@H](O)[C@H]3O)[C@H]3COC(=O)[C@H]23)OCO4)cc(OC)c1O [etoposide] | – | – | – | – | – | – | – | – | – | – | – | – | – | – | SR Dx5 = IC50 (MES-SA)/IC50 (MES-SA/Dx5) (MES-SA/Dx5 [12]): 0.15; IC50 (MES-SA/Dx5 [12]; Homo sapiens, MES-SA/Dx5, 144 h): 1.7 µM; IC50 (MES-SA [13]): 0.26 µM; SR B1 = IC50 (MES-SA)/IC50 (MES-SA/B1) (MES-SA/B1): 0.22 |
| Cc1c(C)c(C)[c-](C)c1C.[Cl-].[Cl-].[O-]c1c(C[NH+]2CCCC2)cc(Cl)c2cccnc12.[Rh+3] [(1), [RhCp*(HQCl-Pyr)Cl]Cl] | 50 µM | 2.97 µM | 9.35 ± 0.03 | 10.47 ± 0.03 | 5.1 ± 0.1 | 50 µM | 1.3 | 16.0 | 0.19 µM | 5.0 ± 0.1 | –0.11 ± 0.01 | +0.12 ± 0.01 | +0.22 ± 0.01 | 50 µM | logK’ (H2O/Cl–) ([2]; RhCp* complexes titrated at pH 7.4): 2.23 ± 0.02; logK’ [M(arene)L]7.4 conditional formation constant [14]: 12.06 ± 0.02 |
